# Source: patent US20100184683A1, “ANTIBACTERIAL AND ANTIFUNGAL PEPTIDES” (C3 JIAN, INC., priority 2009, published 2010)
# Read-outs that look alike come from different tables or passages of the source. Ends that are not written are not given here. Peptide text beside a SMILES is read from it.
# How the values were obtained:
# S. epidermidis = assay type: cell-based
# Experimental: (§1) In certain embodiments the MIC assays are performed as described herein in the Examples. For each organism, the media and growth conditions utilized is detailed in Table 8.
# (§2) In certain embodiments the MIC assays are performed as follows: For each organism, the media and growth conditions utilized is detailed in Table 8.
# T. rubrum = assay type: cell-based, Trichophyton rubrum; conditions: T. rubrum; Potato Dextrose Agar, 25° C., aerobic; inoculum 10^5 CFU/ml; 18-24 h or 48 h
# Experimental: as §1, §2
# C. jeikeium = assay: MIC assay, C. jeikeium; assay type: cell-based, Corynebacterium jeikium; conditions: TSB supplemented with 1% Tween-80, 37° C., aerobic, inoculum 10^6 CFU/ml, 18-24 h or 48 h
# Experimental: as §1, §2
# MRSA = assay type: cell-based, Methicillin-resistant Staphylococcus aureus
# Experimental: as §1, §2
# A. niger = assay type: cell-based, Aspergillus niger; conditions: A. niger; Potato Dextrose Agar, 25° C., aerobic; inoculum 10^5 CFU/ml; 18-24 h or 48 h
# Experimental: as §1, §2
# P. aeruginosa = assay type: cell-based, Pseudomonas aeruginosa; conditions: P. aeruginosa; MH, 37° C., aerobic; inoculum 10^5 CFU/ml; 18-24 h or 48 h
# Experimental: as §1, §2
# B. subtilis = assay type: cell-based, Bacillus subtilis
# Outline: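 Minimum inhibitory concentration was determined separately for each organism, using media and growth conditions chosen for that organism.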
# E. coli = assay type: cell-based, Escherichia coli
# Experimental: as §1, §2
# S. mutans = assay type: cell-based, Streptococcus mutans
# Experimental: as §1, §2
# S. pneumoniae = assay type: cell-based, Streptococcus pneumoniae
# Experimental: as §1, §2
# F. nucleatum = assay type: cell-based, Fusobacterium nucleatum
# Experimental: as §1, §2
# A. naeslundii = assay type: cell-based, Actinomyces naeslundii
# Experimental: as §1, §2
# P. gingivalis = assay type: cell-based, Porphyromonas gingivalis
# Experimental: as §1, §2
# M. furfur ATCC 14521 = conditions: 5 μM peptide, after 15 min of treatment, 10^6 cells/ml, ATCC medium 1072, 30° C.
# Experimental: FIG. 1. Killing kinetics of PF-S028 L and D versions against M. furfur were determined using standard time-kill methods previously detailed (Eckert et al. (2006) Antimicrob Agents Chemother., 50: 1480-1488). Briefly, a log phase culture of M. furfur ATCC 14521 was diluted to 10^6 cells/ml in ATCC medium 1072. To the reaction tubes 5 μM of either PF-S028 L or PF-S028 D were added. A reaction tube to which 4 μl of 50% methanol served as the negative control. Reaction tubes were stored at 30° C. and at indicated intervals an aliquot was removed from the reaction tube and placed in a recovery tube where peptide was removed by dilution. An aliquot from the recovery tube was plated on ATCC medium 1072 agar plates and incubated at 30° C. until visible colonies formed. Colony forming units were calculated for the negative control (no peptide), PF-S028 L, and PF-S028 D treated cultures.
# In some cases killing kinetic experiments were then conducted. Killing kinetics of PF-S028 L and D versions against M. furfur were determined as described in Eckert et al. (2006) Antimicrob Agents Chemother., 50: 1480-1488. Briefly, a log phase culture of M. furfur ATCC 14521 was diluted to 10^6 cells/ml in ATCC medium 1072. To the reaction tubes 5 μM of either PF-S028 L or PF-S028 D were added. […] Colony forming units were calculated for the negative control (no peptide), PF-S028 L, and PF-S028 D treated cultures.
# C. difficile = assay type: cell-based, Clostridium difficile; conditions: C. difficile; BHIS, 37° C., anaerobic; inoculum 10^5 CFU/ml; 18-24 h or 48 h
# Experimental: as §1, §2
# A. baumannii = assay type: cell-based, Acinetobacter baumannii; conditions: A. baumannii; LB, 30° C., anaerobic; inoculum 10^5 CFU/ml; 18-24 h or 48 h
# Experimental: as §1, §2
# [1] = S. epidermidis, BHI supplemented with 0.25% glucose, 37° C., aerobic, inoculum 10^5 CFU/ml, 18-24 h or 48 h
compound,measurement,setting,value
CC[C@H](C)[C@H](NC(=O)[C@H](CCCNC(=N)N)NC(=O)[C@@H](NC(=O)[C@H](CCCCN)NC(=O)[C@H](CCCCN)NC(=O)[C@H](CC(C)C)NC(=O)[C@H](CC(C)C)NC(=O)[C@H](CCCCN)NC(=O)[C@H](CCCNC(=N)N)NC(=O)[C@H](Cc1c[nH]cn1)NC(=O)[C@H](CCCCN)NC(=O)[C@H](CCCCN)NC(=O)[C@H](CCCCN)NC(=O)[C@H](C)NC(=O)[C@H](CCSC)NC(=O)[C@H](CCCNC(=N)N)NC(=O)[C@H](CCCCN)NC(=O)[C@H](CCCNC(=N)N)NC(=O)[C@H](CCCNC(=N)N)NC(=O)[C@H](CCCCN)NC(=O)[C@H](CCCCN)NC(=O)[C@@H](NC(=O)[C@@H](NC(=O)[C@H](CO)NC(=O)CN)C(C)C)[C@@H](C)CC)[C@@H](C)O)C(=O)N[C@@H](CCC(N)=O)C(=O)N[C@@H](CCCNC(=N)N)C(=O)N[C@@H](CCCNC(=N)N)C(=O)N[C@@H](CCCNC(=N)N)C(=O)N[C@@H](C)C(=O)NCC(=O)N[C@@H](CCCCN)C(=O)O [PF-527] (H-GSVIKKRRKRMAKKKHRKLLKKTRIQRRRAGK-OH; N-terminus and C-terminus assumed),MIC,S. epidermidis; [1],25 µM
same,MIC,T. rubrum,25 µM
same,MIC,C. jeikeium,6.25 µM
same,MIC,"MRSA; MRSA, BHI supplemented with 2% glucose, 37° C., aerobic, inoculum 10^5 CFU/ml, 18-24 h or 48 h",50 µM
same,MIC,A. niger,50 µM
same,MIC,P. aeruginosa,50 µM
same,MIC,B. subtilis,12.5 µM
CC[C@H](C)[C@H](NC(=O)[C@H](CCCCN)NC(=O)CNC(=O)[C@H](CC(N)=O)NC(=O)[C@H](CCC(N)=O)NC(=O)[C@H](Cc1ccc(O)cc1)NC(=O)[C@H](C)NC(=O)[C@H](CCCCN)NC(=O)[C@H](C)NC(=O)[C@H](Cc1ccccc1)NC(=O)[C@H](CC(=O)O)NC(=O)[C@H](CCC(N)=O)NC(=O)[C@H](Cc1c[nH]cn1)NC(=O)[C@H](CO)NC(=O)[C@H](CC(N)=O)NC(=O)[C@H](Cc1ccccc1)NC(=O)[C@H](CO)NC(=O)[C@H](CC(C)C)NC(=O)[C@H](C)NC(=O)[C@@H](NC(=O)[C@H](CC(N)=O)NC(=O)[C@@H](NC(=O)[C@H](CCCCN)NC(=O)[C@H](CCCCN)NC(=O)[C@H](CCC(=O)O)NC(=O)[C@H](CCCCN)NC(=O)[C@H](CC(=O)O)NC(=O)[C@H](CC(C)C)NC(=O)[C@H](CCC(=O)O)NC(=O)[C@H](CCCCN)NC(=O)[C@H](CO)NC(=O)[C@H](C)NC(=O)[C@H](CC(N)=O)NC(=O)[C@H](CC(C)C)NC(=O)[C@@H](NC(=O)[C@H](CCCCN)NC(=O)[C@H](CO)NC(=O)[C@H](CCC(=O)O)NC(=O)[C@@H](N)Cc1ccccc1)[C@@H](C)CC)C(C)C)[C@@H](C)O)C(=O)O [PF-606] (H-FESKILNASKELDKEKKVNTALSFNSHQDFAKAYQNGKI-OH; N-terminus and C-terminus assumed),MIC,S. epidermidis,50 µM
same,MIC,E. coli,50 µM
same,MIC,MRSA,50 µM
same,MIC,S. mutans,50 µM
same,MIC,S. pneumoniae,50 µM
CC[C@H](C)[C@H](NC(=O)[C@H](CCC(N)=O)NC(=O)[C@H](CCCCN)NC(=O)[C@H](CC(C)C)NC(=O)[C@H](CC(C)C)NC(=O)[C@@H]1CCCN1C(=O)[C@H](CCSC)NC(=O)[C@H](CC(C)C)NC(=O)[C@H](CO)NC(=O)[C@H](CCCCN)NC(=O)CNC(=O)[C@@H](N)CCCCN)C(=O)N[C@@H](CC(N)=O)C(=O)N[C@@H](CCC(N)=O)C(=O)N[C@@H](Cc1c[nH]c2ccccc12)C(=O)NCC(=O)N[C@@H](CCCCN)C(=O)N[C@@H](CC(C)C)C(=O)N[C@@H](Cc1ccc(O)cc1)C(=O)N[C@@H](CC(C)C)C(=O)O [PF-C239] (H-KGKSLMPLLKQINQWGKLYL-OH; N-terminus and C-terminus assumed),MIC,F. nucleatum,50 µM
same,MIC,A. naeslundii,25 µM
same,MIC,P. gingivalis,50 µM
same,MIC,S. mutans,50 µM
CC[C@@H](C)[C@@H](NC(=O)[C@H](NC(=O)[C@@H](CO)NC(=O)CN)C(C)C)C(=O)N[C@H](CCCCN)C(=O)N[C@H](CCCCN)C(=O)N[C@H](CCCNC(=N)N)C(=O)N[C@H](CCCNC(=N)N)C(=O)N[C@H](CCCCN)C(=O)N[C@H](CCCNC(=N)N)C(=O)N[C@H](CCSC)C(=O)N[C@H](CO)C(=O)N[C@H](CCCCN)C(=O)N[C@H](CCCCN)C(=O)N[C@H](CCCCN)C(=O)N[C@H](Cc1c[nH]cn1)C(=O)N[C@H](CCCNC(=N)N)C(=O)N[C@H](CCCCN)C(=O)N[C@H](CCSC)C(=O)N[C@H](CC(C)C)C(=O)N[C@H](CCCNC(=N)N)C(=O)N[C@H](CCCNC(=N)N)C(=O)N[C@@H](C(=O)N[C@H](CCCNC(=N)N)C(=O)N[C@@H](C(=O)N[C@H](CCC(N)=O)C(=O)N[C@H](CCCNC(=N)N)C(=O)N[C@H](CCCNC(=N)N)C(=O)N[C@H](CCCCN)C(=O)N[C@H](CC(C)C)C(=O)NCC(=O)N[C@H](CCCCN)C(=O)O)C(C)C)[C@H](C)O [PF-S028 D],M. furfur killed,M. furfur ATCC 14521,over 99%
CC[C@H](C)[C@H](NC(=O)[C@@H](NC(=O)[C@H](CO)NC(=O)CN)C(C)C)C(=O)N[C@@H](CCCCN)C(=O)N[C@@H](CCCCN)C(=O)N[C@@H](CCCNC(=N)N)C(=O)N[C@@H](CCCNC(=N)N)C(=O)N[C@@H](CCCCN)C(=O)N[C@@H](CCCNC(=N)N)C(=O)N[C@@H](CCSC)C(=O)N[C@@H](CO)C(=O)N[C@@H](CCCCN)C(=O)N[C@@H](CCCCN)C(=O)N[C@@H](CCCCN)C(=O)N[C@@H](Cc1c[nH]cn1)C(=O)N[C@@H](CCCNC(=N)N)C(=O)N[C@@H](CCCCN)C(=O)N[C@@H](CCSC)C(=O)N[C@@H](CC(C)C)C(=O)N[C@@H](CCCNC(=N)N)C(=O)N[C@@H](CCCNC(=N)N)C(=O)N[C@H](C(=O)N[C@@H](CCCNC(=N)N)C(=O)N[C@H](C(=O)N[C@@H](CCC(N)=O)C(=O)N[C@@H](CCCNC(=N)N)C(=O)N[C@@H](CCCNC(=N)N)C(=O)N[C@@H](CCCCN)C(=O)N[C@@H](CC(C)C)C(=O)NCC(=O)N[C@@H](CCCCN)C(=O)O)C(C)C)[C@@H](C)O [PF-S028 L],M. furfur killed,M. furfur ATCC 14521,39%
TKKIELKRFVDAFVKKSYENYILERELKKLIKAINEELPTK [PF-600],MIC,E. coli,50 µM
same,MIC,S. pneumoniae,50 µM
YIQFHLNQQPRPKVKKIKIFL [PF-531],MIC,S. epidermidis; [1],50 µM
same,MIC,C. difficile,12.5 µM
same,MIC,T. rubrum,50 µM
same,MIC,A. baumannii,25 µM
same,MIC,C. jeikeium,6.25 µM
same,MIC,A. niger,25 µM
same,MIC,P. aeruginosa,50 µM
same,MIC,"S. mutans; S. mutans, TH supplemented with 1% sucrose, 37° C., anaerobic, inoculum 10^5 CFU/ml, 18-24 h or 48 h",12.5 µM
same,MIC,"B. subtilis; B. subtilis, BHI, 30° C., aerobic, inoculum 10^5 CFU/ml, 18-24 h or 48 h",25 µM
